Data taken from the supplement of paper PMC11451515.

Experiments:
Details in all cases: 48 h
[1] = test system: NOMO1; assay: cell viability relative to DMSO control; higher = less cytotoxic
Method in brief: (§1)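 Cells were incubated for 48 h at 37°C before CellTiter-Glo One luminescence was read. The cells were NOMO1 or SEM (500 cells/well) or P12-Ichikawa (1000 cells/well) leukemia cells, adapted for at least four passages in each medium and seeded in 1536-well plates (5 μl). Dosing used library compounds in DMSO applied by pin over 11 threefold points, 47 μM to 0.79 nM. Viability is the per-plate percentage of DMSO wells, with cell-free wells as background.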

[2] = test system: SEM cells; assay: as above
Method in brief: as §1

[3] = test system: P12-Ichikawa; assay: as above
Method in brief: as §1

[4] = test system: NOMO1; assay: AUC of viability dose-response curve (% viability x log10 dose units); higher = less sensitive
Method in brief: (§2)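 Library compounds in DMSO were applied for 48 h at 37°C at 11 threefold doses (47 μM to 0.79 nM) to medium-adapted leukemia cells in 1536-well plates holding 500 or 1000 cells/well. Luminescence from CellTiter-Glo One was normalised plate by plate against DMSO and cell-free wells. Area under the curve came from trapezoidal integration of a log-logistic fit, after scaling curves that rose above full viability and discarding those that failed quality control. The fit had four parameters and used log10 doses.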

[5] = test system: SEM cells; assay: as above
Method in brief: as §2

[6] = test system: P12-Ichikawa; assay: as above
Method in brief: as §2

CNC(=O)c1cccc(-c2ccc3c(N4CCOC[C@@H]4C)nc(N4CCOC[C@@H]4C)nc3n2)c1
cell viability [%]
Details	[1]	[2]	[3]
HPLM + 10% dialyzed FBS, 0.000781 µM	99.9	97.5	104
HPLM + 10% dialyzed FBS, 0.00234 µM	99.8	102	106
HPLM + 10% dialyzed FBS, 0.00702 µM	83.6	85.8	95
HPLM + 10% dialyzed FBS, 0.0211 µM	92.1	77.2	92.4
HPLM + 10% dialyzed FBS, 0.0632 µM	73.8	73.2	87.1
HPLM + 10% dialyzed FBS, 0.19 µM	61.4	63.7	80.2
HPLM + 10% dialyzed FBS, 0.569 µM	64.3	62.6	78.8
HPLM + 10% dialyzed FBS, 1.71 µM	67.3	47.8	67.7
HPLM + 10% dialyzed FBS, 5.12 µM	60.1	37.6	65.6
HPLM + 10% dialyzed FBS, 15.4 µM	49.3	38.6	64.8
HPLM + 10% dialyzed FBS, 46.1 µM	53.7	23.1	62.4
RPMI 5 mM glucose + 10% FBS, 0.000781 µM	98.3	110	93.7
RPMI 5 mM glucose + 10% FBS, 0.00234 µM	91.1	98.1	98.6
RPMI 5 mM glucose + 10% FBS, 0.00702 µM	91.2	97	86.7
RPMI 5 mM glucose + 10% FBS, 0.0211 µM	96.6	93.3	75.4
RPMI 5 mM glucose + 10% FBS, 0.0632 µM	79.6	84.4	67.2
RPMI 5 mM glucose + 10% FBS, 0.19 µM	82.9	77.6	57.2
RPMI 5 mM glucose + 10% FBS, 0.569 µM	87.2	78.7	55.7
RPMI 5 mM glucose + 10% FBS, 1.71 µM	68.9	56.1	54.3
RPMI 5 mM glucose + 10% FBS, 5.12 µM	57.9	47.3	54.9
RPMI 5 mM glucose + 10% FBS, 15.4 µM	60.2	32.9	48.5
RPMI 5 mM glucose + 10% FBS, 46.1 µM	45.2	17.9	44.5
RPMI 5 mM glucose + 10% dialyzed FBS, 0.000781 µM	83.7	97.7	98.4
RPMI 5 mM glucose + 10% dialyzed FBS, 0.00234 µM	85.7	95.9	102
RPMI 5 mM glucose + 10% dialyzed FBS, 0.00702 µM	90.5	85.3	89.5
RPMI 5 mM glucose + 10% dialyzed FBS, 0.0211 µM	79.5	76	80.6
RPMI 5 mM glucose + 10% dialyzed FBS, 0.0632 µM	75.6	69.6	72.8
RPMI 5 mM glucose + 10% dialyzed FBS, 0.19 µM	62.8	64.1	61.8
RPMI 5 mM glucose + 10% dialyzed FBS, 0.569 µM	62.5	58.6	64.6
RPMI 5 mM glucose + 10% dialyzed FBS, 1.71 µM	54.8	55.3	58.1
RPMI 5 mM glucose + 10% dialyzed FBS, 5.12 µM	50.4	43	49.8
RPMI 5 mM glucose + 10% dialyzed FBS, 15.4 µM	49.4	35	44.7
RPMI 5 mM glucose + 10% dialyzed FBS, 46.1 µM	50.3	20.7	39.9

AUC of viability dose-response curve
Details	[4]	[5]	[6]
HPLM + 10% dialyzed FBS	343	305	370
RPMI 5 mM glucose + 10% FBS	376	333	316
RPMI 5 mM glucose + 10% dialyzed FBS	323	305	322

CCCCN(CCCC)CCC(O)c1cc2c(Cl)cc(Cl)cc2c2cc(C(F)(F)F)ccc12 (stereo unspecified)
cell viability [%]
Details	[1]	[2]	[3]
HPLM + 10% dialyzed FBS, 0.000781 µM	115	92.5	120
HPLM + 10% dialyzed FBS, 0.00234 µM	115	93.3	122
HPLM + 10% dialyzed FBS, 0.00702 µM	115	84.3	118
HPLM + 10% dialyzed FBS, 0.0211 µM	124	104	120
HPLM + 10% dialyzed FBS, 0.0632 µM	119	108	130
HPLM + 10% dialyzed FBS, 0.19 µM	138	122	131
HPLM + 10% dialyzed FBS, 0.569 µM	134	36.2	130
HPLM + 10% dialyzed FBS, 1.71 µM	121	61.7	131
HPLM + 10% dialyzed FBS, 5.12 µM	131	117	131
HPLM + 10% dialyzed FBS, 15.4 µM	126	91.3	124
HPLM + 10% dialyzed FBS, 46.1 µM	123	109	121
RPMI 5 mM glucose + 10% FBS, 0.000781 µM	117	109	115
RPMI 5 mM glucose + 10% FBS, 0.00234 µM	111	105	126
RPMI 5 mM glucose + 10% FBS, 0.00702 µM	119	107	119
RPMI 5 mM glucose + 10% FBS, 0.0211 µM	107	115	118
RPMI 5 mM glucose + 10% FBS, 0.0632 µM	106	116	135
RPMI 5 mM glucose + 10% FBS, 0.19 µM	126	141	147
RPMI 5 mM glucose + 10% FBS, 0.569 µM	128	48.4	141
RPMI 5 mM glucose + 10% FBS, 1.71 µM	121	52	150
RPMI 5 mM glucose + 10% FBS, 5.12 µM	121	111	132
RPMI 5 mM glucose + 10% FBS, 15.4 µM	121	89.7	105
RPMI 5 mM glucose + 10% FBS, 46.1 µM	115	89	88.3
RPMI 5 mM glucose + 10% dialyzed FBS, 0.000781 µM	116	92.1	108
RPMI 5 mM glucose + 10% dialyzed FBS, 0.00234 µM	109	116	110
RPMI 5 mM glucose + 10% dialyzed FBS, 0.00702 µM	121	109	114
RPMI 5 mM glucose + 10% dialyzed FBS, 0.0211 µM	126	110	117
RPMI 5 mM glucose + 10% dialyzed FBS, 0.0632 µM	121	105	120
RPMI 5 mM glucose + 10% dialyzed FBS, 0.19 µM	115	118	125
RPMI 5 mM glucose + 10% dialyzed FBS, 0.569 µM	135	46.2	130
RPMI 5 mM glucose + 10% dialyzed FBS, 1.71 µM	116	48.3	138
RPMI 5 mM glucose + 10% dialyzed FBS, 5.12 µM	118	104	131
RPMI 5 mM glucose + 10% dialyzed FBS, 15.4 µM	122	83.1	141
RPMI 5 mM glucose + 10% dialyzed FBS, 46.1 µM	116	105	105

AUC of viability dose-response curve
Details	[4]	[5]	[6]
HPLM + 10% dialyzed FBS	453	442	466
RPMI 5 mM glucose + 10% FBS	459	408	459
RPMI 5 mM glucose + 10% dialyzed FBS	471	415	452
